# Tests used:
# pancreatic lipase = biological target: T1, pancreatic lipase (Homo sapiens, UniProt P16233); assay: in vitro effect on the activity of pancreatic lipase; type: biochemical; details: concentration of 10 mg, after 45 and 60 minutes, 37° C.
# T1 sequence (P16233 17-465): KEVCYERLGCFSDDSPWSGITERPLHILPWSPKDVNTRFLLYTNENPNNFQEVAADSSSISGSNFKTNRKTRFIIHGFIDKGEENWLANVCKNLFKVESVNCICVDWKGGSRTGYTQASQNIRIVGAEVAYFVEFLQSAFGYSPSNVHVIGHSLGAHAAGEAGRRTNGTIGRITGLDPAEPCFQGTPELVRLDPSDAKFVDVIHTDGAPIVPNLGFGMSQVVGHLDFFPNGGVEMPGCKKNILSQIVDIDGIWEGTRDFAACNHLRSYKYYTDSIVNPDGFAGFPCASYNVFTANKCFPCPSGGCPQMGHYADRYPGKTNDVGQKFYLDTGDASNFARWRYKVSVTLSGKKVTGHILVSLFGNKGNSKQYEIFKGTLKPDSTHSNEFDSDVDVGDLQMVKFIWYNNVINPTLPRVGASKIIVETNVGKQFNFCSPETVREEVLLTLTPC
# Text: The composition of the formulation of the invention is presented below in the Table 1: […]
# lipase = details: human, three capsules of 120 mg daily; cited from earlier work
smiles,measurement,setting,value
"CCCCCCCCCCC[C@@H](C[C@@H]1OC(=O)[C@H]1CCCCCC)OC(=O)[C@H](CC(C)C)NC=O (relative stereo) [Xenical®, ([2S-[2a(R*),3b]]N-formyl-L-leucine 1-[(3-hexyl-4-oxo-2-oxetanyl)methyl]dodecyl ester)]",inhibition of lipase activity,pancreatic lipase,complete inhibition
same,consumed fat that goes through the digestive tract without decomposition and is not absorbed,lipase,30%

# — patent publication US20090175969A1, “Formulation for treating obesity and associated metabolic syndrome” (priority 2004, published 2009)
